{"source": "patent US12433860B2", "about": "“Treatment of multiple sclerosis comprising DHODH inhibitors” (Immunic AG, priority 2021, dated 2025)", "key": {"[1]": {"system": "patients with RRMS and evidence of active disease", "assay": "EMPhASIS Cohort 2 interim analysis: MRI lesions up to Week 12", "assay_type": "in vivo, human", "details": "for Cumulative number of New Gd+ lesions up to Week 12, Mean / Cumulative number of CUA MRI lesions up to Week 12, Mean / Patients without CUA MRI lesions over 12 weeks / Patients without New Gd+ lesions over 12 weeks: mFAS; for Cumulative number of New Gd+ lesions up to Week 12, Mean: placebo 3.5; for Cumulative number of CUA MRI lesions up to Week 12, Mean: placebo 4.4; for Patients without CUA MRI lesions over 12 weeks: placebo 41.4; for Patients without CUA MRI lesions over 12 weeks / Patients without New Gd+ lesions over 12 weeks: listed as IMU-838; for Patients without New Gd+ lesions over 12 weeks: placebo 49.3"}, "[2]": {"molecular_target": "human DHODH (Homo sapiens, UniProt Q02127)", "sequence (Q02127 whole entry)": "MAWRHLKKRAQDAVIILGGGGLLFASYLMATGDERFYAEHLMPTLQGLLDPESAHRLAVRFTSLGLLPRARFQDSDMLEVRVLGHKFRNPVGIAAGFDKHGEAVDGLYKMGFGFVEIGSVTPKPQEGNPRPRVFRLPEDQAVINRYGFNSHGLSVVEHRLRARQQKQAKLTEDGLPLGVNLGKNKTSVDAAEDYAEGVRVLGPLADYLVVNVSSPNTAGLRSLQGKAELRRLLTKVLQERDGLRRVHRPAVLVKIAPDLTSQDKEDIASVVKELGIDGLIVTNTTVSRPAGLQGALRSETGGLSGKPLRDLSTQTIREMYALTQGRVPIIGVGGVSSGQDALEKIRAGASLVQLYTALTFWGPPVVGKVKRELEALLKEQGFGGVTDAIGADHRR", "details": "cited from earlier work"}, "[3]": {"system": "neurofilament light chain in serum", "assay": "EMPhASIS: change in serum neurofilament light chain", "assay_type": "in vivo, human", "details": "for Median change in neurofilament light chain in serum from baseline to week 24: placebo 6.5%", "experimental": "Other secondary endpoints included: the difference in the cumulative number of combined unique active lesions up to week 24 between vidofludimus calcium 45 mg and vidofludimus calcium 30 mg; number or cumulative number of gadolinium-enhancing, T1, or T2 lesions up to 24 weeks; annualized relapse rate from baseline until week 24; proportion of relapse-free patients up to week 24; time-to-first relapse; change in EDSS score from baseline; proportion of patients with EDSS score progression; brain atrophy and other MRI endpoints; and safety and tolerability as assessed by the investigators. Annualized relapse rate was defined as the total number of confirmed relapses divided by the real exposure time in years assessed over the time during the double-blind treatment period. EDSS progression was defined as an increase compared to baseline of at least 1.0 point for patients with a baseline EDSS score of 1.0 to 4.0 or of at least 1.5 points for patients with a baseline EDSS score of 0. Vidofludimus calcium trough concentrations (weeks 6 and 24) were used to assess the correlation between pharmacokinetics and MRI-based assessments. The effects of vidofludimus calcium on serum neurofilament (baseline and week 24) were also analyzed.\nBased on pre-clinical and clinical studies and the single and multiple-dose Phase 1 studies with IMU-838, daily doses of IMU-838 of up to 50 mg once daily are considered safe. […] A post-hoc analysis from EMPhASIS study (see Example 1 and 2) in the non-relapse active subgroup of rrMS patients was conducted. […] Change in mean EDSS from baseline to Week 24 in a non-relapse active subgroup of rrMS patients (patients without relapse between baseline and Week 24)."}, "[4]": {"system": "patients with RRMS and evidence of active disease", "assay": "EMPhASIS Cohort 2 interim analysis: MRI lesions up to Week 12", "assay_type": "in vivo, human", "experimental": "Given the relative equal performance of the two doses in Cohort 1 (see Example 1) and to allow for pharmacodynamic modeling of the dose-response relationship, a lower dose was investigated. The objective of the Cohort 2 sub-trial is to obtain exploratory data on the dose response of IMU-838 by evaluating a lower IMU-838 dose i.e. 10 mg/day to provide additional data for pharmacodynamic modelling. The 10 mg IMU-838 dose was selected since it is more than 50% lower than the lowest effective dose of Cohort 1 (30 mg IMU 838) and avoids undesired overlap in serum trough levels for pharmacodynamic modelling of the pooled Cohort 1 and 2 data. A small placebo arm is included to provide blinding of patients and to relate Cohort 2 treatment effects. Assessments and procedures mostly follow those described for the main treatment period in the Cohort 1 main trial. Trial objectives and endpoints: The objective of this sub-trial is to obtain more efficacy and safety data of IMU-838 in patients with RRMS and to allow pharmacodynamic modelling of the dose response. The endpoints analyzed in this interim analysis were between-treatment differences in the following MRI parameters: cumulative number of CUA MRI lesions up to Week 12; cumulative number of new Gadolinium enhancing (Gd+) lesions up to Week 12; proportion of patients without CUA MRI lesions until Week 12; and proportion of patients without new Gd+ lesions until Week 12. Overall trial design and plan: This is a double-blind, placebo-controlled, randomized, parallel-group sub-trial of P2 IMU-838 MS to assess the efficacy and safety of once-daily oral 10 mg/day IMU-838 compared to placebo in patients with RRMS and evidence of active disease. The sub-trial consists of a blinded main treatment period and an open-label, extended treatment period (FIG. 2). Patients were randomized 1:4 to placebo and 10 mg IMU-838 on Day 0."}, "[5]": {"assay": "Pre-clinical, clinical and single and multiple-dose Phase 1 studies: safe daily dose", "assay_type": "in vivo", "details": "once daily"}, "[6]": {"details": "in vivo; cited from earlier work"}, "[7]": {"system": "patients with relapsing-remitting multiple sclerosis", "details": "in vivo", "method": "(§1) Adverse events were assessed at screening, baseline, day 7, and weeks 6, 12, 18, and 24 and all unscheduled clinic visits. Routine clinical chemistries, haematology, liver function tests, and urinalysis were collected at baseline, day 7, and weeks 6, 12, 18, and 24. Vital signs and electrocardiogramere conducted at screening and regularly scheduled intervals. Adverse events of special interest included: red blood cells in urine, haematuria, and retroperitoneal colicky pain with suspected or confirmed nephrolithiasis.\n(§2) The intention-to-treat population was defined as all randomized patients who received at least one dose of placebo or vidofludimus calcium and were analyzed by the groups to which they were randomized. The safety population included all randomized patients who received at least one dose of placebo or vidofludimus calcium and was analyzed by the treatment assigned. The per-protocol population was defined as all randomized patients receiving at least one dose of placebo or vidofludimus calcium and no violations of major protocol criteria during treatment. The modified intention-to-treat population was defined as all randomized patients receiving at least one dose of placebo or vidofludimus calcium and having all MRI scans available for analysis."}, "[8]": {"system": "secretion of interleukin (IL)-17 and IFNγ", "details": "in vitro; cited from earlier work"}, "[9]": {"system": "patients with relapsing-remitting multiple sclerosis", "assay": "EMPhASIS Cohort 1: safety and tolerability", "details": "for proportion of patients with at least one treatment-emergent adverse event: 24 weeks, placebo 44%; for patients who discontinued the study treatment prematurely: placebo 7%", "method": "as §1, §2"}, "[10]": {"system": "T-lymphocyte proliferation", "details": "in vitro; cited from earlier work"}}, "note": "Several values for one entry are separate records, joined by “and”; a condition that tells them apart may be missing. Equal entries are not always repeated. Structures can show the parent of a compound that is named as a salt."}
{"smiles": "COc1cccc(-c2ccc(NC(=O)C3=C(C(=O)O)CCC3)c(F)c2)c1", "note": "[vidofludimus calcium, 1-cyclopentene-1-carboxylic acid, 2-(((3-fluoro-3′-methoxy(1,1′-biphenyl)-4-yl)amino)carbonyl)-, calcium salt (2:1)]", "values": [{"measurement": "suppression of Gd+ lesions at Week 12 compared with placebo", "setting": "[1]; 10 mg", "value": 40, "unit": "%"}, {"measurement": "Cumulative number of New Gd+ lesions up to Week 12, Mean", "setting": "[1]; 10 mg (C2)", "value": 2.0}, {"measurement": "suppression of CUA lesions at Week 12 compared with placebo", "setting": "[1]; 30 mg", "value": 68, "unit": "%"}, {"measurement": "suppression of Gd+ lesions at Week 12 compared with placebo", "setting": "[1]; 30 mg", "value": 66, "unit": "%"}, {"measurement": "Cumulative number of New Gd+ lesions up to Week 12, Mean", "setting": "[1]; 30 mg (C1)", "value": 1.2}, {"measurement": "Cumulative number of CUA MRI lesions up to Week 12, Mean", "setting": "[1]; 30 mg (C1)", "value": 1.4}, {"measurement": "Patients without CUA MRI lesions over 12 weeks", "setting": "[1]; 30 mg (C1)", "value": "62% and 61.5%"}, {"measurement": "Patients without New Gd+ lesions over 12 weeks", "setting": "[1]; 30 mg (C1)", "value": "66% and 66.2%"}, {"measurement": "suppression of CUA lesions at Week 12 compared with placebo", "setting": "[1]; 45 mg", "value": 75, "unit": "%"}, {"measurement": "suppression of Gd+ lesions at Week 12 compared with placebo", "setting": "[1]; 45 mg", "value": 74, "unit": "%"}, {"measurement": "Cumulative number of New Gd+ lesions up to Week 12, Mean", "setting": "[1]; 45 mg (C1)", "value": 0.9}, {"measurement": "Cumulative number of CUA MRI lesions up to Week 12, Mean", "setting": "[1]; 45 mg (C1)", "value": 1.1}, {"measurement": "Patients without CUA MRI lesions over 12 weeks", "setting": "[1]; 45 mg (C1)", "value": "55% and 54.5%"}, {"measurement": "Patients without New Gd+ lesions over 12 weeks", "setting": "[1]; 45 mg (C1)", "value": "61% and 60.6%"}, {"measurement": "potency against human DHODH", "setting": "[2]", "value": "submicromolar potency"}, {"measurement": "Median change in neurofilament light chain in serum from baseline to week 24", "setting": "[3]; 30 mg once daily", "value": "−17.0", "unit": "%"}, {"measurement": "decrease in serum neurofilament light chain (NfL), dose comparison", "setting": "[3]; 45 mg dose, FIG. 3A", "value": "greater decrease"}, {"measurement": "Median change in neurofilament light chain in serum from baseline to week 24", "setting": "[3]; 45 mg once daily", "value": "−20.5", "unit": "%"}, {"measurement": "suppression of CUA lesions at Week 12 compared with placebo", "setting": "[4]; 10 mg", "value": 32, "unit": "%"}, {"measurement": "Cumulative number of CUA MRI lesions up to Week 12, Mean", "setting": "[4]; 10 mg (C2), mFAS, placebo 4.4", "value": 3.0}, {"measurement": "Patients without CUA MRI lesions over 12 weeks", "setting": "[4]; 10 mg (C2), mFAS, placebo 41.4, listed as IMU-838", "value": "46% and 45.7%"}, {"measurement": "Patients without New Gd+ lesions over 12 weeks", "setting": "[4]; 10 mg (C2), mFAS, placebo 49.3, listed as IMU-838", "value": "51% and 51.1%"}, {"measurement": "lowest effective dose in patients with rrMS", "setting": "[4]; totality of Cohort 1 data and Week 12 interim analysis of Cohort 2", "value": 30, "unit": "mg"}, {"measurement": "daily dose considered safe", "setting": "[5]", "value": "up to 50 mg"}, {"measurement": "half-life", "setting": "[6]", "value": "approximately 30 h"}, {"measurement": "deaths during the trial", "setting": "[7]", "value": "No deaths occurred"}, {"measurement": "secretion of interleukin (IL)-17 and IFNγ", "setting": "[8]", "value": "inhibited"}, {"measurement": "patients experiencing serious adverse events", "setting": "[9]; 30 mg group, considered unrelated to treatment", "value": 2, "unit": "patients"}, {"measurement": "proportion of patients with at least one treatment-emergent adverse event", "setting": "[9]; 30 mg", "value": 45, "unit": "%"}, {"measurement": "patients who discontinued the study treatment prematurely", "setting": "[9]; 30 mg", "value": 3, "unit": "%"}, {"measurement": "patients who met hepatotoxicity stopping rules", "setting": "[9]; 45 mg group", "value": "two"}, {"measurement": "proportion of patients with at least one treatment-emergent adverse event", "setting": "[9]; 45 mg", "value": 41, "unit": "%"}, {"measurement": "patients who discontinued the study treatment prematurely", "setting": "[9]; 45 mg", "value": 6, "unit": "%"}, {"measurement": "Serious adverse events", "setting": "[9]; across treatment groups", "value": "0-3%"}, {"measurement": "Renal treatment-emergent events, patients", "setting": "[9]; any dose, placebo 1%", "value": 2, "unit": "%"}, {"measurement": "Hepatic treatment-emergent adverse events, patients", "setting": "[9]; any dose, placebo 4%", "value": 4, "unit": "%"}, {"measurement": "Adverse events of special interest, patients", "setting": "[9]; any dose, ureterolithiasis, placebo 1%", "value": 1, "unit": "%"}, {"measurement": "tolerability", "setting": "[9]; both doses (30 mg and 45 mg)", "value": "well tolerated"}, {"measurement": "cardiovascular, haematological, infectious or malignancy-related adverse events", "setting": "[9]; in vivo", "value": "No remarkable cardiovascular, haematological, infectious or malignancy-related adverse events"}, {"measurement": "changes in haematologic laboratory values (neutrophil, lymphocyte, leukocyte count)", "setting": "[9]; in vivo", "value": "No changes"}, {"measurement": "changes in serum uric acid", "setting": "[9]; over 24 weeks, any treatment group", "value": "No marked changes"}, {"measurement": "discontinuations attributable to treatment-emergent adverse events", "setting": "[9]; vidofludimus calcium groups, placebo n=3", "value": 2, "unit": "patients"}, {"measurement": "Alopecia, fatigue, rash, and cystitis treatment-emergent adverse events not recorded in placebo-treated patients", "setting": "[9]; vidofludimus calcium-treated patients", "value": "1-4%"}, {"measurement": "T-lymphocyte proliferation", "setting": "[10]", "value": "inhibited"}]}
